The values that follow come from ChEMBL document CHEMBL4033655, “Part I: Design, synthesis and biological evaluation of novel pyrazole-benzimidazole conjugates as checkpoint kinase 2 (Chk2) inhibitors with studying their activities alone and in combination with genotoxic drugs” (Eur J Med Chem, 2017).

The nature of the data set: Acute toxicity in Sprague-Dawley rat assessed as mortality administered orally as single dose measured up to 1 month. The settings on record: in vivo, po.

Consider `Cc1nn(-c2ccccc2)c(Oc2ccc(-c3nc4cc(C(=O)O)ccc4[nH]3)cc2)c1[N+](=O)[O-]`, for which the LD50 (in general, the dose expected to kill half of the subjects tested) was determined as 400 mg/kg.
